According to US20040033213A1, “Methods of modulating dendritic cells using adjuvants” (Corixa Corporation, priority 2002, published 2004):

Assays:
Type in all cases: cell-based
[1] = system: Human d7 Cultured Dendritic Cells; assay: Flow cytometry phenotype analysis of human d7 cultured dendritic cells after 24 h stimulation; details: LPS 10 ng/ml, others 100 ng/ml; for HLA-DR MFI: 7 day DCs, 24 h stimulation
[2] = system: 6-7 day cultured human dendritic cells; assay: ELISA of cytokines (IL-12 p40, IL-12 p70, TNF-α) in 22 h induction supernatants of cultured human dendritic cells; details: for IL-12 p40 / IL-12 p70 / TNF-α: 22 Hrs
From the text: Recent articles have described how human dendritic cells can be derived in vitro from CD14 positive monocyte precursors in peripheral blood. A “buffy coat” preparation can now be commonly obtained from a unit of normal human peripheral blood from a blood bank on request. The leukocyte fraction was harvested from this buffy coat preparation using standard ficoll centrifugation techniques. Subsequently, the leukocyte fraction was labeled with anti-CD 14 antibody coupled to magnetic microbeads. This preparation was then passed over a magnet (Miltanyi Biotech) and CD14 positive monocytes were collected. These CD14 positive monocyte precursors were then cultured for 5-7 days in vitro (5×10^5 cells/ml) with GM-CSF (20 ng/ml) for the duration of the culture. […] After the 24 hour in vitro stimulation culture, cells were washed twice and stained with a panel of monoclonal antibodies specific for different cell surface activation and co-receptor molecules found on mature, activated DCs.
Supernatants from DCs stimulated with LPS, MPL® immunostimulant-S, RC-527, RC-529, and RC-544 were collected and tested by ELISA analysis for cytokines.

[3] = system: murine bone marrow derived DCs + D011.10 T cells; assay: APC function of ova-pulsed, lipid A potentiated murine DCs co-cultured with D011.10 T cells (cytokine ELISA)
From the text: These antigen pulsed, lipid A potentiated cells were then washed thoroughly and titered against ova-specific T cell effector cells in vitro at an APC: T cell ratio titration of 1:1 out to as high as 1:512. The effector T cells in this in vitro assay were the antigen naive, but antigen (ova) specific, MHC restricted I-A^d splenic T cells from transgenic D011.10 mice.
D011.10 TCR-transgenic mice were used in these experiments as donors of antigen specific naive T cells. In their germline DNA these mice contain rearranged TCR-Vα and -Vβ genes that encode a T cell receptor (TCR) specific for the ovalbumin peptide 323-339 bound to IA^d (Balb/c) Class II MHC molecules. The transgenic ova peptide specific TCR can be detected with the KJ1-26 monoclonal antibody (mAb) that binds only to this particular TCR heterodimer. These cells provide a ready source of “normal” antigen (ova)-specific effector T cells. Effective antigen-mediated APC stimulation of those T cells is generally measured by ELISA quantitation of IL-2 or IFN-γ in the culture supernatants of DC+D011.10 T cells after 24-48 hours of incubation.
In one experiment, murine bone marrow derived DCs (6 day cultures) were pulsed with ova (50 μg/ml-5×10^5 cells/ml) and then potentiated overnight with LPS(R595), MPL® immunostimulant-S, RC-527, RC-529 or RC-544 prior to being cultured together with naive D011.10 effector T cells (FIGS. 1-7). The APC function of these DCs as measured by their ability to stimulate IL-2, IFN-γ IL-12 (p70) and IL-12 (p40) secretion in the DC+D011.10 co-culture systems was analyzed. All of the data shown in FIGS. 1-7 was developed from DCs maintained in lipid A induction cultures for either 15 or 38 hours prior to use in the T cell assay.

[4] = Exp. # 092398, Day 7, LPS 10 ng/ml, others 100 ng/ml
[5] = Exp. # 093098, LPS 10 ng/ml, others 100 ng/ml

CCCCCCCCCCCC(CC(=O)NC(COC1OC(CO)C(OP(=O)(O)O)C(OC(=O)CC(CCCCCCCCCCC)OC(=O)CCCCCCCCC)C1NC(=O)CC(CCCCCCCCCCC)OC(=O)CCCCCCCCC)C(=O)O)OC(=O)CCCCCCCCC (stereo not drawn) [RC-527]
CD 1a % positive cells ([1]; Exp. 091698, 24 h): 93.5% | CD 1a MFI ([1]; Exp. 091698, 24 h): 8.71 | CD 4 % positive cells ([1]; Exp. 091698, 24 h): 69.5% | CD 4 MFI ([1]; Exp. 091698, 24 h): 2.33 | CD 14 % positive cells ([1]; Exp. 091698, 24 h): 4.2% | CD 35 % positive cells ([1]; Exp. 091698, 24 h): 49.4% | CD 35 MFI ([1]; Exp. 091698, 24 h): 2.74 | CD 40 MFI ([1]; Exp. 091698, 24 h): 43.0 | CD 44 MFI ([1]; Exp. 091698, 24 h): 329 | CD 54 MFI ([1]; Exp. 091698, 24 h): 34.9 | CD 62 L % positive cells ([1]; Exp. 091698, 24 h): 11.2% | CD 69 % positive cells ([1]; Exp. 091698, 24 h): 16.1% | CD 80 % positive cells ([1]; Exp. 091698, 24 h): 99.5% | CD 80 MFI ([1]; Exp. 091698, 24 h): 8.37 | CD 83 % positive cells ([1]; Exp. 091698, 24 h): 97.0% | CD 83 MFI ([1]; Exp. 091698, 24 h): 3.52 | CD 86 % positive cells ([1]; Exp. 091698, 24 h): 99.8% | CD 86 MFI ([1]; Exp. 091698, 24 h): 18.1 | CD 95 % positive cells ([1]; Exp. 091698, 24 h): 93.6% | CD 95 MFI ([1]; Exp. 091698, 24 h): 1.61 | HLA-DR MFI ([1]; Exp. 091698): 74.2 | CD 1a % positive cells ([1]; Exp. 092398, 24 h): 84.1% | CD 1a MFI ([1]; Exp. 092398, 24 h): 5.57 | CD 4 % positive cells ([1]; Exp. 092398, 24 h): 69.5% | CD 4 MFI ([1]; Exp. 092398, 24 h): 2.66 | CD 14 % positive cells ([1]; Exp. 092398, 24 h): 4.3% | CD 35 % positive cells ([1]; Exp. 092398, 24 h): 65.1% | CD 35 MFI ([1]; Exp. 092398, 24 h): 3.02 | CD 40 MFI ([1]; Exp. 092398, 24 h): 35.0 | CD 54 MFI ([1]; Exp. 092398, 24 h): 42.6 | CD 62 L % positive cells ([1]; Exp. 092398, 24 h): 13.6% | CD 69 % positive cells ([1]; Exp. 092398, 24 h): 10.5% | CD 80 % positive cells ([1]; Exp. 092398, 24 h): 99.4% | CD 80 MFI ([1]; Exp. 092398, 24 h): 12.7 | CD 83 % positive cells ([1]; Exp. 092398, 24 h): 97.6% | CD 83 MFI ([1]; Exp. 092398, 24 h): 3.57 | CD 86 % positive cells ([1]; Exp. 092398, 24 h): 99.9% | CD 86 MFI ([1]; Exp. 092398, 24 h): 28.0 | CD 95 % positive cells ([1]; Exp. 092398, 24 h): 94.8% | CD 95 MFI ([1]; Exp. 092398, 24 h): 1.78 | αC5aR + GAR Alexa % positive cells ([1]; Exp. 092398, 24 h): 42.3% | CD 44 MFI ([1]; Exp. 092398, 24 h, values printed with a trailing +): 499+ | GAR-Alexa % positive cells ([1]; Exp. 092398, 24 h, secondary reagent staining): 2.9% | HLA-DR MFI ([1]; Exp. 092398): 107.8 | CCR 6 % positive cells ([1]; Exp. 093098, 24 h): 4.0% | CD 1a % positive cells ([1]; Exp. 093098, 24 h): 80.3% | CD 1a MFI ([1]; Exp. 093098, 24 h): 6.83 | CD 3 % positive cells ([1]; Exp. 093098, 24 h): 28.5% | CD 3 MFI ([1]; Exp. 093098, 24 h): 3.89 | CD 4 % positive cells ([1]; Exp. 093098, 24 h): 75.2% | CD 4 MFI ([1]; Exp. 093098, 24 h): 3.06 | CD 11c % positive cells ([1]; Exp. 093098, 24 h): 92.6% | CD 11c MFI ([1]; Exp. 093098, 24 h): 6.77 | CD 14 % positive cells ([1]; Exp. 093098, 24 h): 3.3% | CD 40 MFI ([1]; Exp. 093098, 24 h): 34.9 | CD 54 MFI ([1]; Exp. 093098, 24 h): 47.0 | CD 62 L % positive cells ([1]; Exp. 093098, 24 h): 3.0% | CD 80 % positive cells ([1]; Exp. 093098, 24 h): 98.9% | CD 80 MFI ([1]; Exp. 093098, 24 h): 13.1 | CD 83 % positive cells ([1]; Exp. 093098, 24 h): 92.6% | CD 83 MFI ([1]; Exp. 093098, 24 h): 3.63 | CD 86 % positive cells ([1]; Exp. 093098, 24 h): 99.5% | CD 86 MFI ([1]; Exp. 093098, 24 h): 27.4 | CD 123 % positive cells ([1]; Exp. 093098, 24 h): 52.9% | CD 123 MFI ([1]; Exp. 093098, 24 h): 1.99 | αC5aR + Alexa 488 % positive cells ([1]; Exp. 093098, 24 h): 42.7% | αC5aR + Alexa 488 MFI ([1]; Exp. 093098, 24 h): 8.17 | HLA-DR MFI ([1]; Exp. 093098): 172.9 | IL-12 p40 ([2]; Exp. # 091698, LPS 10 ng/ml, others 100 ng/ml): 202,200 pg/mL/5 × 10^5 Cells | IL-12 p70 ([2]; Exp. # 092398 (second line, Day7), LPS 10 ng/ml, others 100 ng/ml): 201.4 pg/ml/5 × 10^5 Cells | IL-12 p40 [2, 4]: 163,000 pg/mL/5 × 10^5 Cells | TNF-α [2, 4]: 10,750 pg/mL/5 × 10^5 Cells | IL-12 p70 ([2]; Exp. # 092398 as printed (first line of section), LPS 10 ng/ml, others 100 ng/ml): 194.0 pg/ml/5 × 10^5 Cells | IL-12 p70 ([2]; Exp. # 092398 as printed (third line of section), LPS 10 ng/ml, others 100 ng/ml): 168.9 pg/ml/5 × 10^5 Cells | TNF-α ([2]; Exp. # 093098 (third line of section), LPS 10 ng/ml, others 100 ng/ml): 7,020 pg/mL/5 × 10^5 Cells | IL-12 p40 [2, 5]: 107,600 pg/mL/5 × 10^5 Cells | TNF-α [2, 5]: 4,000 pg/mL/5 × 10^5 Cells | IL-12 (p40) expression (in words) ([2]; all three experiments, LPS 10 ng/ml, others 100 ng/ml): in every case a potent stimulator of IL-12 (p40) | IL-12 (p70) (in words) ([2]; the one donor in which LPS and MPL-S gave a significant amount): high levels of IL-12 (p70) | IL-12 (p70) expression (in words) ([2]; the other two experiments (different normal donors)): significant levels of IL-12 (p70) expression | TNF-α secretion (in words) ([2]; three donors): very strong TNF-α effect in all three donors | IFN-γ release by D011.10 T cells (in words) ([3]; DCs precultured 38 hours, FIG. 3): generally more potent | IFN-γ secretion by D011.10 cells (in words) ([3]; DCs prestimulated 15 hours, FIG. 2): high levels of IFN-γ release | IL-2 secretion (in words) ([3]; DCs prestimulated 15 hours, all T cell:APC ratios, FIG. 1): comparable in their ability to stimulate IL-2 secretion | IFN-γ secretion at T cell:APC ratio 32:1 (in words) ([3]; FIG. 4): comparable to that observed with LPS | IL-12 (p70) in DC+D011.10 co-cultures (in words) ([3]; FIG. 5): most potent | release of IL-12 (p40) homodimer in DC+D011.10 co-cultures (in words) ([3]; FIG. 7): most potent effect
